Source: patent publication US20200095296A1, “USE OF PEPTIDES AS BIOMARKERS IN THE DIAGNOSIS, CONFIRMATION AND TREATMENT OF A NEUROLOGICAL DISORDER AND TCR AND/OR HLA IMMUNOPROFILING IN NEURODEGENERATIVE DISEASE” (THE TRUSTEES OF COLUMBIA UNIVERSITY IN THE CITY OF NEW YORK, priority 2017, published 2020)
Read-outs that look alike come from different tables or passages of the source.

What was measured:
DRB1*13:02 = DRB1*13:02 (Homo sapiens, UniProt P01903+P01911, A100E/A169T/K41T/L162R/M171V/P40S/Q125H/Q178H/Q39Y/Q99D/R42S/S66N/T262R/V115G/W38E/Y61H); assay: competition binding assay, purified HLA DRB1*13:02
DRB1*12:01 = DRB1*12:01 (Homo sapiens, UniProt P01903+P01911, A100R/A169T/D57E/D86V/F55L/H45Y/K41T/L162R/M171V/P40S/Q125H/Q178H/Q39Y/Q99D/R42G/S66L/T262R/V114A/V67L/W38E/Y59H/Y61H/Y89S); assay: competition binding assay, purified HLA DRB1*12:01
DRB1*09:01 = DRB1*09:01 (Homo sapiens, UniProt P01903+P01911, A100R/A103E/D57H/D86V/F55Y/F60I/F76Y/I96F/K127E/L162R/M171V/P40D/Q125H/Q99R/R33Q/R42F/S133A/S66N/T210M/V115G/W38K/Y107V/Y59G/Y89S); assay: competition binding assay, purified HLA DRB1*09:01
DRB5*01:01 = DRB5*01:01 (Homo sapiens, UniProt P01903+Q30154); assay: competition binding assay, purified HLA DRB5*01:01
DRB1*15:01 = DRB1*15:01 (Homo sapiens, UniProt P01903+P01911); assay: competition binding assay, purified HLA DRB1*15:01
DRB4*01:01 = DRB4*01:01 (Homo sapiens, UniProt P01903+P13762, G164S); assay: competition binding assay, purified HLA DRB4*01:01
DRB3*01:01 = DRB3*01:01 (Homo sapiens, UniProt P01903+P79483); assay: competition binding assay, purified HLA DRB3*01:01; details: radiolabeled peptide competition, nM
DRB1*04:01 = DRB1*04:01 (Homo sapiens, UniProt P01903+P01911, A100K/A169T/F76Y/I96L/K127E/L162R/M171V/N62H/P40V/Q125Y/R42H/S133A/S149N/S66Y/V115G/V209L/W38E); assay: competition binding assay, purified HLA DRB1*04:01; details: radiolabeled peptide competition, nM
[1] = purified HLA, radiolabeled peptide competition, nM, read-out: binding to DRB1*13:02 (IC50)
[2] = purified HLA, radiolabeled peptide competition, nM, read-out: binding to DRB1*12:01 (IC50)
[3] = purified HLA, radiolabeled peptide competition, nM, read-out: binding to DRB1*09:01 (IC50)
[4] = purified HLA, radiolabeled peptide competition, nM, read-out: binding to DRB5*01:01 (IC50)
[5] = purified HLA, radiolabeled peptide competition, nM, read-out: binding to DRB4*01:01 (IC50)

Row | IC50 (DRB1*15:01; purified HLA, radiolabeled peptide competition, nM, read-out: binding to DRB1*15:01 (IC50)) [nM] | Structure (SMILES) | IC50 (DRB1*13:02) [nM] | IC50 (DRB1*12:01) [nM] | IC50 (DRB1*09:01) [nM] | IC50 (DRB5*01:01) [nM] | IC50 (DRB1*15:01) [nM] | IC50 (DRB4*01:01) [nM] | IC50 (DRB3*01:01) [nM] | IC50 (DRB1*13:02; [1]) [nM] | IC50 (DRB1*12:01; [2]) [nM] | IC50 (DRB1*09:01; [3]) [nM] | IC50 (DRB1*04:01) [nM] | IC50 (DRB5*01:01; [4]) [nM] | IC50 (DRB4*01:01; [5]) [nM]
1 |  | CSCC[C@H](NC(=O)[C@H](CCC(=O)O)NC(=O)[C@H](Cc1ccc(O)cc1)NC(=O)[C@H](C)NC(=O)[C@H](CCC(=O)O)NC(=O)[C@H](CC(N)=O)NC(=O)[C@@H](N)CC(=O)O)C(=O)N1CCC[C@H]1C(=O)N[C@@H](CO)C(=O)N[C@@H](CCC(=O)O)C(=O)N[C@@H](CCC(=O)O)C(=O)NCC(=O)N[C@@H](Cc1ccc(O)cc1)C(=O)N[C@@H](CCC(N)=O)C(=O)N[C@@H](CC(=O)O)C(=O)O | > 10000 | > 10000 | 4600 | > 10000 | > 10000 | > 10000 |  |  |  |  |  |  | 
2 | > 10000 | CSCC[C@H](NC(=O)[C@H](CCC(=O)O)NC(=O)[C@H](Cc1ccc(O)cc1)NC(=O)[C@H](C)NC(=O)[C@H](CCC(=O)O)NC(=O)[C@H](CC(N)=O)NC(=O)[C@@H](N)CC(=O)O)C(=O)N1CCC[C@H]1C(=O)N[C@@H](COP(=O)(O)O)C(=O)N[C@@H](CCC(=O)O)C(=O)N[C@@H](CCC(=O)O)C(=O)NCC(=O)N[C@@H](Cc1ccc(O)cc1)C(=O)N[C@@H](CCC(N)=O)C(=O)N[C@@H](CC(=O)O)C(=O)O |  |  |  |  |  |  | 9180 | > 10000 | > 10000 | > 10000 | 9130 | > 10000 | > 10000
3 |  | CSCC[C@H](NC(=O)[C@@H](N)CCC(=O)O)C(=O)N1CCC[C@H]1C(=O)N[C@@H](COP(=O)(O)O)C(=O)N[C@@H](CCC(=O)O)C(=O)N[C@@H](CCC(=O)O)C(=O)NCC(=O)N[C@@H](Cc1ccc(O)cc1)C(=O)N[C@@H](CCC(N)=O)C(=O)N[C@@H](CC(=O)O)C(=O)N[C@@H](Cc1ccc(O)cc1)C(=O)N[C@@H](CCC(=O)O)C(=O)N1CCC[C@H]1C(=O)N[C@@H](CCC(=O)O)C(=O)N[C@@H](C)C(=O)O |  |  |  |  |  |  | > 10000 | > 10000 | > 10000 | > 10000 | 4950 | > 10000 | > 10000
